{
  "source": "patent US20210369677A1",
  "about": "“SMALL MOLECULE ACTIVATORS OF POLYCYSTIN-2 (PKD2) AND USES THEREOF” (Northwestern University, priority 2020, published 2021)",
  "biological_target": "T1, polycystin-2 channels (Mus musculus, UniProt O35245, DEL771-772)",
  "T1 construct": "the mouse channel orthologue under endogenous expression in the kidney collecting duct; endogenous in cells; host or cells: primary inner medullary collecting duct (pIMCD) cells of ARL13B-EGFP mice",
  "T1 sequence (O35245 with tags, fused parts or gaps DEL771-772)": "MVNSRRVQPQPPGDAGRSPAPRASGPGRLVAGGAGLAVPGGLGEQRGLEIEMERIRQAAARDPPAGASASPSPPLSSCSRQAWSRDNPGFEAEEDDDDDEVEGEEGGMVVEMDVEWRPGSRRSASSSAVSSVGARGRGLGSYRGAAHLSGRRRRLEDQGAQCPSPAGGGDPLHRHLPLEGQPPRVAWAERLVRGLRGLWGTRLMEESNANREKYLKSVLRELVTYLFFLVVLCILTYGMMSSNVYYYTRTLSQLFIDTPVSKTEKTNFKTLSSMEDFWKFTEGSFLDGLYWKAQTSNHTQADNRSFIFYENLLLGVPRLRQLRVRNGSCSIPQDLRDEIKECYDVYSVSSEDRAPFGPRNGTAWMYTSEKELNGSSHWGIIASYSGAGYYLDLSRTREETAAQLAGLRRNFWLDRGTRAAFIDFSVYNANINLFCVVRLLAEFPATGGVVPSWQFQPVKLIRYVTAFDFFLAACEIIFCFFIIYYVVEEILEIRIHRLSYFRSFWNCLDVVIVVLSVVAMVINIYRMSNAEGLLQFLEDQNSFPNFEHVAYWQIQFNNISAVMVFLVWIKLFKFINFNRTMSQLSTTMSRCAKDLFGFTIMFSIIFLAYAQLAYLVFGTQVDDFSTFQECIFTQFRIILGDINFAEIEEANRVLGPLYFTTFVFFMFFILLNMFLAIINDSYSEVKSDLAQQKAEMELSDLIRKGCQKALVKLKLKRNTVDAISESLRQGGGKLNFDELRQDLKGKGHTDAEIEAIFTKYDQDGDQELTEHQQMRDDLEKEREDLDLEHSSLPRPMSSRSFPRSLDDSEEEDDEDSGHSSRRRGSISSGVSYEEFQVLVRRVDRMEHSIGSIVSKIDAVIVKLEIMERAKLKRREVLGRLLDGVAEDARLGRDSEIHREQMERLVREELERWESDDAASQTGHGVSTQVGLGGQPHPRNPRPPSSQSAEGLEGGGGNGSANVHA",
  "assay": "Inside-out cilia patch of pIMCD cells, calcium opening of polycystin-2 channels",
  "assay_type": "cell-based",
  "details": "Pkd2del-Z/delZ mice; read-out: EC50, potency of calcium opening polycystin-2 channels",
  "protocol": "Cell culture of primary inner medullary collecting duct cells and immortalized cell lines. Primary inner medullary collecting ducts cells (pIMCD) were isolated from WT or Pkd2^del-Z/del-Z mice co-expressing the ARL13B-EGFP cilia reporter using the previously described method (Liu et al., 2018). Briefly, inner medullae were removed from the kidney and disassociated using a Dulbecco's phosphate buffered solution (DPBS) containing 2 mg/ml collagenase A and 1 mg/ml hyaluronidase. After mechanical disassociation on ice, medullary cells were cultured in Dulbecco's modified essential medium (DMEM) supplemented with 10% fetal bovine serum (FBS) and 100 units/ml penicillin/100 μg/ml streptomycin. Cilia were patched from cells within 6 days after isolation and within one passage. HEK PKD2^Null cell lines were generated using the CRISPR/Cas9 gene editing kit available from Addgene and authenticated using PCR analysis, as previously described (Liu et al., 2018). […]\nElectrophysiology. The electrophysiologist was blinded by a third party in the laboratory, where test groups were assigned a letter to conceal the genetic identity of the cells being evaluated. […] Ciliary ion currents were recorded using borosilicate glass electrodes polished to resistances of 14-23 MΩ using the cilium patch method previously described (Vien et al., 2020). Single channel currents measured in the inside-out configuration were recorded in symmetrical sodium concentrations. […] Calcium was buffered with 5 EGTA (ethylene glycol-bis(o-aminoethyl ether)-N,N,N′,N′-tetraacetic acid), 5 Na4-BAPTA (Glycine, N, N′-[1,2-ethanediylbis(oxy-2,1-phenylene)]bis[N-(carboxymethyl)]-,tetrasodium) and 0.5 EDTA […]; free calcium was calculated using Maxchilator and titration of 1 M CaCl2) solution (Bers et al., 2010); pH was adjusted to 7.3 using NaOH. […] Whole cell currents used to measure CDD were also recorded in symmetrical sodium concentration, placing the internal recording solution in the pipette electrode and the external recording solution in the bath. […]",
  "data": [
    {"smiles": "[Ca+2]", "note": "[Ca^2+, calcium]", "values": [
      {"measurement": "EC50", "value": "1.4 ± 0.3", "unit": "µM"}
    ]}
  ]
}
